Measured values as given in patent US20090317335A1, “Hybrid Nanomaterials as Multimodal Imaging Contrast Agents” (priority 2006, published 2009).

Experiment: MR relaxivity (T1/T2) on 3.0 Tesla MRI scanner
Format: physicochemical
Description: Thermogravimetric analysis (TGA) was performed using a Shimadzu TGA-50 (Shimadzu Corp., Kyoto, Japan) equipped with a platinum pan and heated at a rate of 3° C./min under air. A Hitachi 4700 field emission scanning electron microscope (SEM; Hitachi Ltd., Tokyo, Japan) and a JEM 100CX-II transmission electron microscope (JEOL Ltd., Tokyo, Japan) were used to determine particle size and morphology. Scanning electron microscope (SEM) images of the nanoparticles were taken on glass substrate. A Cressington 108 Auto Sputter Coater (Cressington Scientific Instruments, Ltd., Watford, United Kingdom) equipped with an Au/Pd (80/20) target and M™-10 thickness monitor was used to coat the sample with approximately 5 nm of conductive layer before taking SEM images. Gd^3+ ion concentration was measured on a SpectraSpan7 Direct Current Plasma (DCP) Spectrometer (Applied Research Laboratories, La Brea, Calif., United States of America). […] T1 and T2 values were determined on a Bruker 3.0 Tesla full body Magnetic Resonance Imaging (MRI) scanner (Bruker BioSpin MRI GmbH, Ettlingen, Germany). […] Fluorescence microscope images were taken with a Zeiss Axiovert 100 TV Fluorescence Microscope (Carl Zeiss, Inc., Thornwood, N.Y., United States of America) using a FITC filter. T1 values were obtained using the standard inversion-recovery method, whereas T2 values were determined using spin-echo pulse sequences. […]

| Substance | r1 (molecular complex, for comparison with 1) | longitudinal relaxivity (r1) (per mM of Gd^3+ (metal ion), 3.0 Tesla scanner, water or 0.1% Xanthan gum) |
| --- | --- | --- |
| gadolinium (aminopropyltrimethoxysilyl) diethylenetriamine tetraacetate [Gd—Si-DTTA complex] | 6.8 s^−1 mM^−1 Gd^3+ |  |
| bis(aminopropyl-triethoxysilyl)diethylenetriamine pentaacetate gadodiamide [Gd—Si-DTPA complex] |  | 6.2 s⁻¹ |
